Measurements taken from patent US20250002954A1, “Novel Compound, Use Thereof, and Method for Producing Same, and Compound-Containing Composition, Method for Producing 4-Trehalosamine, and Microorganism” (Microbial Chemistry Research Foundation, priority 2021, published 2025).
Values belong to the compound of their own block, whether it stands above or below them.

What was measured:
[1] = Measurement of critical micelle concentration (CMC) with CMC assay kit; type: physicochemical
Procedure: (§1) For the IMCTA-C8, IMCTA-C9, IMCTA-C10, IMCTA-C11, IMCTA-C12, IMCTA-C13, IMCTA-C14, and IMCTA-C15 (IMCTA-Cn) that were obtained in synthesis examples 1 to 8 and for n-dodecyl-β-D-maltoside (DDM) as control, “critical micelle concentration (CMC)”, “micelle size”, and “Hydrophilic-Lipophilic Balance (HLB) value” were measured or calculated in the following manner.
CMC was measured with a Detergent Critical Micelle Concentration (CMC) Assay Kit (CMC1000, manufactured by ProFoldin) according to the product protocol.

[2] = Measurement of micelle size by dynamic light scattering; type: physicochemical
Procedure: as §1
Micelle sizes were measured by dynamic light scattering with Zetasizer Nano S (manufactured by Malvern Panalytical).

[3] = tested on: human ovarian cancer cells OVK18 and human malignant melanoma cells Mewo; test: Autophagy inducing effect on cultured cells (western blotting of autophagy-related proteins); type: cell-based; settings: for accumulation of PCD (precursors of cathepsin D) / concentration giving same or higher LC3-II expression, relative to trehalose / p62 / pAkt / phosphorylation of p70 S6K: 24 hours; for expression of LC3-II (autophagy marker): 24 hours treatment, western blotting
Procedure: Expression and phosphorylation patterns of autophagy-related proteins when human ovarian cancer cells or human malignant melanoma cells were treated with 4-trehalosamine and trehalose analog for 24 hours were determined by western blotting.
Human ovarian cancer cells OVK18 (obtained from RIKEN BRC) and human malignant melanoma cells Mewo (JCRB0066) were each inoculated on a 12-well microplate at 8×10^4 cells/mL/well and cultured in DMEM culture medium at 37° C. for 72 hours, after which they were treated with test samples.
The test samples used were the 4-trehalosamine (4TA) obtained in the <Purification process> of production example 10, trehalose (TRH), the IMCTA-Cn compounds obtained in synthesis examples 1 to 8, trehalose ester (TRH-Cn) (manufactured by Dojindo Laboratories), n-dodecyl-β-D-maltoside (DDM), maltose (MLT), sucrose (SCR), and rapamycin (RM). Untreated cells without addition of compounds were used as control.
In treatment with the test samples, in order to avoid contact of a compound with locally high concentration with cells, a half of the culture fluid in each well was taken, and a required amount of test sample was dissolved in it. After dissolving it sufficiently, it was returned to the original well and treated at 37° C. for 24 hours.
Subsequently, culture medium containing the test samples was removed, washed once with PBS, and dissolved with 2×SDS sample buffer not containing 2-mercaptoethanol (2-ME) or bromphenol blue (BPB). After measuring the protein concentration in the dissolved sample with a BCA protein assay kit (manufactured by Thermo Fisher Scientific), 2-ME and BPB were added and the sample was boiled for 5 minutes, which was used as a sample for western blotting.
The western blotting was performed in a similar manner to test example 4 except that anti-LC3 antibody, which is a marker for autophagy, anti-p62, anti-cathepsin D antibody, anti-Phospho-Akt (Ser473) antibody, anti-Akt antibody, anti-Phospho-p70 S6K (T389) antibody, and anti-p70 S6K antibody (all manufactured by Cell Signaling Technology) were used at 1/2,000 dilution as the primary antibodies in the method described in test example 4.
The results for human ovarian cancer cells OVK18 are shown in FIGS. 20A to 20C, and the results for human malignant melanoma cells Mewo are shown in FIGS. 20D to 20F. In FIGS. 20A, 20B, 20D, and 20E, “PCD” denotes precursors of cathepsin D and “CD-HC” denotes cathepsin D heavy chain.

[4] = tested on: Mycobacterium smegmatis mc^2 (ATCC 700084); test: Staining of mycobacterium with IMCTA-fluorescein, IMCTA-biotin or IMCTA-azide; type: cell-based; settings: for ingestion into bacterial cells and fluorescence (staining): 10 μg/mL IMCTA-fluorescein, 30 μg/mL IMCTA-biotin, 10 μg/mL IMCTA-azide, 37° C., 8 hours; for ingestion in the presence of sucrose (blocking): sucrose 1% or 3%

Compound: CCCCCCCCCN[C@@H]1C(CO)O[C@H](O[C@H]2OC(CO)[C@@H](O)C(O)C2O)C(O)C1O (some centres unmarked) [IMCTA-C9]
CMC [1]: 3.84 mM | Micelle size [2]: 5.5 ± 1.3 nm

Compound: CCCCCCCCCCN[C@@H]1C(CO)O[C@H](O[C@H]2OC(CO)[C@@H](O)C(O)C2O)C(O)C1O (some centres unmarked) [IMCTA-C10]
CMC [1]: 2.67 mM | Micelle size [2]: 5.9 ± 1.8 nm

Compound: CCCCCCCCCCCN[C@@H]1C(CO)O[C@H](O[C@H]2OC(CO)[C@@H](O)C(O)C2O)C(O)C1O (some centres unmarked) [IMCTA-C11]
CMC [1]: 0.96 mM | Micelle size [2]: 15.9 ± 6.5 nm

Compound: CCCCCCCCCCCCN[C@@H]1C(CO)O[C@H](O[C@H]2OC(CO)[C@@H](O)C(O)C2O)C(O)C1O (some centres unmarked) [IMCTA-C12]
CMC [1]: 0.58 mM | Micelle size [2]: 13.7 ± 6.4 nm

Compound: CCCCCCCCCCCCCCCN[C@@H]1C(CO)O[C@H](O[C@H]2OC(CO)[C@@H](O)C(O)C2O)C(O)C1O (some centres unmarked) [IMCTA-C15]
accumulation of PCD (precursors of cathepsin D) [3]: no accumulation of PCD was observed | concentration giving same or higher LC3-II expression, relative to trehalose [3]: several thousand times lower than trehalose | p62 [3]: accumulation trend of p62 | pAkt [3]: decreasing trend of pAkt | phosphorylation of p70 S6K [3]: p70 S6K was not dephosphorylated | expression of LC3-II (autophagy marker) [3]: particularly strong expression | CMC [1]: 0.06 mM | Micelle size [2]: 92.5 ± 49 nm

Compound: [N-]=[N+]=N[C@@H]1C(CO)O[C@H](O[C@H]2OC(CO)[C@@H](O)C(O)C2O)C(O)C1O (some centres unmarked) [IMCTA-azide, 4-azide-4-deoxy-trehalose]
ingestion into bacterial cells and fluorescence (staining) [4]: ingested into Mycobacterium smegmatis bacterial cells and emitted fluorescence | fluorescence strength compared among labelers ([4]; same amount of labeler): strongest fluorescence | ingestion in the presence of sucrose (blocking) [4]: suppression of ingestion was observed | ingestion in the presence of trehalose (blocking) ([4]; trehalose 1% or 3%): suppression of ingestion was observed

Compound: O=C(CCCC[C@@H]1SC[C@@H]2NC(=O)N[C@@H]21)N[C@@H]1C(CO)O[C@H](O[C@H]2OC(CO)[C@@H](O)C(O)C2O)C(O)C1O (some centres unmarked) [IMCTA-biotin]
ingestion into bacterial cells and fluorescence (staining) [4]: ingested into Mycobacterium smegmatis bacterial cells and emitted fluorescence | staining pattern ([4]; fluorescence microscope): patch-like staining pattern | ingestion in the presence of sucrose (blocking) [4]: some suppression of ingestion by sucrose

Now from value to compound, other results behind:

CMC [1]: 0.23 mM | Micelle size [2]: 6.1 ± 0.1 nm
Compound: CCCCCCCCCCCCO[C@@H]1O[C@H](CO)[C@@H](O[C@H]2O[C@H](CO)[C@@H](O)[C@H](O)[C@H]2O)[C@H](O)[C@H]1O [DDM, n-dodecyl-β-D-maltoside, reference compound]

CMC [1]: 8.02 mM | Micelle size [2]: 4.3 ± 1.7 nm
Compound: CCCCCCCCN[C@@H]1C(CO)O[C@H](O[C@H]2OC(CO)[C@@H](O)C(O)C2O)C(O)C1O (some centres unmarked) [IMCTA-C8]

CMC [1]: 0.24 mM | Micelle size [2]: 17.3 ± 10.9 nm
Compound: CCCCCCCCCCCCCN[C@@H]1C(CO)O[C@H](O[C@H]2OC(CO)[C@@H](O)C(O)C2O)C(O)C1O (some centres unmarked) [IMCTA-C13]
accumulation of PCD (precursors of cathepsin D) [3]: no accumulation of PCD was observed | concentration giving same or higher LC3-II expression, relative to trehalose [3]: several thousand times lower than trehalose | p62 [3]: accumulation trend of p62 | pAkt [3]: decreasing trend of pAkt | phosphorylation of p70 S6K [3]: p70 S6K was not dephosphorylated | expression of LC3-II (autophagy marker) [3]: particularly strong expression
